# In patent US10004786B2 (Zealand Pharma A/S, priority 2009, dated 2018):
# Assays:
# Assay type in all cases: in vivo
# [1] = Oral glucose tolerance 2, 4, 6, 8, 10 and 12 h after dosing in high fat fed mice; conditions: 10 nmol/kg s.c. single dose, high fat fed C57BL/6J mice
# Procedure: C57Bl/6J male mice, 6 weeks old, were acclimatized to their new environment with free access to a high fat diet (D12492, Research Diet Inc., New Brunswick, USA) and water. The animals were injected s.c. with vehicle for a period of three days to acclimatize the animals to handling and injections. Blood samples were taken from the tip of the tail and blood glucose measured. The blood glucose (mM) concentration was analyzed by the immobilized glucose oxidase method using a drop of blood (<5 μl; Contour Autoanalyser, Bayer, Denmark) following the manufacturer's manual. After 4 weeks on the high fat diet the animals were weighed and the body weight was used to administer a body weight-corrected dose of peptide. An oral glucose tolerance test (OGTT) was performed after subjecting the animals to 4 hours of fasting. At 2, 4, 6, 8, 10 and 12 hours after single peptide or vehicle dosing an initial blood sample were taken (t=−0 min). Immediately thereafter, an oral dose of glucose (1 g/kg) was given and the animals were returned to their home cages (t=0). BG levels were measured at t=15 min, t=30 min, t=60 min and t=90 min. […]
# An oral glucose tolerance test (OGTT) was performed after subjecting the animals to 4 hours of fasting. […] BG levels were measured at t=15 min, t=30 min, t=60 min and t=90 min. […]
# [2] = Body weight gain in high fat fed C57BL/6J mice (10 days); conditions: 5 nmol/kg b.i.d. s.c., short term high fat-fed C57BL/6J mice
# In short: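 Male C57Bl/6J mice fed high fat diet for 4 weeks from 6 weeks of age, vehicle-acclimatized 3 days, then dosed b.i.d. s.c. with peptide at 0.5 and 5 nmol/kg or vehicle. Doses corrected to daily body weights, which were recorded throughout.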
# [3] = Pharmacokinetic screening in mouse plasma after subcutaneous administration; conditions: sc, mice, 100 nmol/kg s.c., * = only two time points used for calculation
# Procedure: Mice were dosed 100 nmol/kg subcutaneously (s.c.). The mice were sacrificed and the blood collected at the following time points; 0.5, 2, 4, 6, 16 and 24 h. Plasma samples were analyzed using protein precipitation, followed by solid phase extraction (SPE) and liquid chromatography mass spectrometry (LC-MS).
# Pharmacokinetic profiles were determined for various acylated compounds.
# [4] = Food intake in young lean and old obese C57BL/6J mice; conditions: s.c. at t=0 h and t=12 h, p<0.05 versus vehicle
# Procedure: C57BL/6J mice were on a high fat diet for 11 days and C57BL/6J mice were on a high fat diet for 52 weeks.
# 3 days before study, the mice were transferred to individual cages and weighed. 4 days before study, they were acclimatized to handling and treatment by daily s.c. injections. On the day before the experiment food was removed at 20:00. […] Immediately after treatment (t=0), pre-weighed food were introduced to the mice and the cumulative food intake was measured by weighing the remaining food after t=1, 2, 4, 8, 12 and 24 hours. After weighing the food and the animals at t=24 h, the mice were sacrificed by cervical dislocation.
# Immediately after treatment (t=0), pre-weighed food were introduced to the mice and the cumulative food intake was measured by weighing the remaining food after t=1, 2, 4, 8, 12 and 24 hours.
# [5] = Total cholesterol and HDL/LDL ratio in Diet Induced Obese (DIO) mice; conditions: 4 weeks, 12.7 nmol/kg, plasma, P<0.0001
# Procedure: The assay is an enzymatic colorimetric method. In the presence of magnesium ions, dextran sulfate selectively forms water-soluble complexes with LDL, VLDLA and chylomicrons, which are resistant to PEG-modified enzymes. The HDL cholesterol is determined enzymatically by cholesterol esterase and cholesterol oxidase coupled with PEG to the amino groups. Cholesterol esters are broken down quantitatively to free cholesterol and fatty acids. HDL cholesterol is enzymatically oxidized to choles-4-en-3-one and H2O2, and the formed H2O2 is measured colorimetrically (Cobas®; Application note HDLC3).
# The direct determination of LDL takes advantage of the selective micellary solubilization of LDL by a nonionic detergent and the interaction of a sugar compound and lipoproteins (VLDL and chylomicrons). The combination of a sugar compound with detergent enables the selective determination of LDL in plasma. […] Free cholesterol is then oxidized and the formed H2O2 is measured colorimetrically (Application note LDL_C, Cobas®).
# Diet Induced Obese (DIO) mice were treated with vehicle or compound 7 for 4 weeks and plasma prepared from the collected blood samples. The total cholesterol, LDL and HDL were determined in each plasma sample (Cobas® application notes: CHOL2, HDLC3 and LDL_C) and results are shown in FIGS. 5 and 6.
# [6] = HbA1c in db/db mice after 28 days; conditions: 4 weeks, 12.7 nmol/kg, P=0.03 Students t-test
# Procedure: Male mice (Long term high fat fed C57Bl/6J, short term high fat fed C57Bl/6J and db/db) were acclimatized with free access to food and water. They were housed in groups of 5-6 in a light-, temperature-, and humidity-controlled room (12-hour light:12-hour dark cycle, lights On/Off at 2000/0800 hour; 24° C.; 50% relative humidity).
# The animals were injected s.c. with 100 μl vehicle (once a day) for a period of three days to acclimatize the animals to handling and injections. Blood samples were taken from the eye or from the tip of the tail. The animals were randomized before treatment.
# Mice were treated twice daily s.c. with GluGLP-1 agonist or vehicle (injection volume=2.5 ml/kg). Throughout the study, body weights were recorded daily and used to administer the body weight-corrected doses of peptide. Peptide solutions were prepared fresh immediately before dosing. […]
# The HbA1c determination is based on Turbidimetric INhibition ImmunoAssay (TINIA) in which HbA1c in the sample reacts with anti-HbA1c to form soluble antigen-antibody complexes. Additions of polyhaptens react with excess anti-HbA1c antibodies to form an insoluble antibody-polyhapten complex, which can be measured turbidimetrically. Liberated hemoglobin in the hemolyzed sample is converted to a derivative having a characteristic absorption spectrum, which is measured bichromatically during the preincubation phases. […]
smiles,measurement,setting,value
CCCCCCCCCCCCCCCC(=O)N[C@@H](CCC(=O)NCCCC[C@H](NC(=O)[C@H](CO)NC(=O)[C@H](CC(=O)O)NC(=O)[C@H](CC(C)C)NC(=O)[C@H](Cc1ccc(O)cc1)NC(=O)[C@H](CCCCN)NC(=O)[C@H](CO)NC(=O)[C@H](Cc1ccc(O)cc1)NC(=O)[C@H](CC(=O)O)NC(=O)[C@H](CO)NC(=O)[C@@H](NC(=O)[C@H](Cc1ccccc1)NC(=O)[C@@H](NC(=O)CNC(=O)[C@H](CCC(N)=O)NC(=O)C(C)(C)NC(=O)[C@@H](N)Cc1c[nH]cn1)[C@@H](C)O)[C@@H](C)O)C(=O)N[C@@H](C)C(=O)N[C@@H](C)C(=O)N[C@@H](Cc1c[nH]cn1)C(=O)N[C@@H](CC(=O)O)C(=O)N[C@@H](Cc1ccccc1)C(=O)N[C@H](C(=O)N[C@@H](CCC(=O)O)C(=O)N[C@@H](Cc1c[nH]c2ccccc12)C(=O)N[C@@H](CC(C)C)C(=O)N[C@@H](CC(C)C)C(=O)N[C@@H](CO)C(=O)N[C@@H](C)C(N)=O)C(C)C)C(=O)O [Compound 7],glucose tolerance (AUC during oral glucose tolerance test),[1],significantly improves glucose tolerance
same,"body weight gain, high dose",[2],significantly decreased body weight gain at the high dose
same,half-life,[3],3.4 h
same,"food intake, old obese mice",[4]; high fat diet for 52 weeks,"reduced food intake during the 0-2, 0-4, 0-8, 0-12 and 0-24 time periods"
same,"food intake, young lean mice",[4]; high fat diet for 11 days,"reduced food intake during the 0-4, 0-8, 0-12 and 0-24 time periods"
same,HDL/LDL-ratio,[5],increased the HDL/LDL-ratio
same,total cholesterol concentrations,[5],decreased total cholesterol concentrations
same,ΔHbA1c (%) compared to vehicle,[6],decreased ΔHbA1c (%) significantly
